Laboratory results: patent publication US8703744B2, “Cholesterol level lowering liposomes” (priority 2009, dated 2014)

System: Huh7.5 cells
Assay: Uptake of rh-PE-labeled 22:6 ER liposomes into Huh7.5 cells in the presence of drugs that up- and down-regulate LDLr expression
Type: cell-based, human
Conditions: 10 μM, 24 h pre-treatment, then 50 μM rhodamine-labeled 22:6 ER liposomes for 24 h
Experimental: Liposomes were prepared as described in US patent publication no. 20090252785 and included 1% (total moles) of rh-PE for monitoring their uptake in cells. JC-1-infected (MOI=0.5) or uninfected Huh7.5 cells were seeded in 6 well plates at a density of 3×10^5 cell/well in 2 ml of complete DMEM/10% FCS medium. Cells were either pre-treated or not with 1 μM and 10 μM squalestatin (SQ, Sigma) or 25-hydroxycholesterol (25-HC, Sigma) for 24 h in serum-free complete DMEM. Following the 24 h pre-incubation, rh-labeled liposomes were added to a final lipid concentration of 50 μM, and left to incubate for a further 24 h. Following incubation times, cells were washed twice in 1×PBS, detached, counted, and resuspended in 200 μl 1×PBS/1% Triton® X-100 before being transferred to a 96 well plate to read in a spectrofluorometer at λex=550 nm, Xem=590 nm.
22:6 ER liposomes (final lipid concentration of 50 μM), labeled with 1% rh-PE in the lipid bilayer, were then added to cells and left to incubate a further 24 h. Cells were then harvested, counted, and rh-PE fluorescence was measured at λex=550 nm, Xem=590 nm. All data represent the mean and SD of triplicates from three independent experiments. Data are presented in relation to the untreated control (100%), and significant differences from this value are denoted with * (P<0.05) or ** (P<0.001).

| SMILES | decrease in liposome uptake [%] | liposome uptake, in relation to the untreated control (100%) [%] |
| --- | --- | --- |
| C[C@H](CCCC(C)(C)O)[C@H]1CC[C@H]2[C@@H]3CC=C4C[C@@H](O)CC[C@]4(C)[C@H]3CC[C@]12C [25-HC, 25-hydroxycholesterol] | 69 | – |
| C=C(CC[C@]12O[C@H](C(=O)O)[C@@](O)(C(=O)O)[C@](C(=O)O)(O1)[C@H](OC(=O)/C=C/[C@@H](C)C[C@@H](C)CC)[C@H]2O)[C@@H](OC(C)=O)[C@H](C)Cc1ccccc1 [SQ, squalestatin] | – | 117 |
